Test results: patent US6924301B1, “Composition for treating or preventing arrhythmia” (Shionogi & Co., Ltd., priority 1999, dated 2005)

Key:
Wistar male rats = test: Arrhythmia induced by ischemia-reperfusion (coronary ligation 3 min, 10 min reperfusion) in anesthetized rats; assay type: in vivo, rat; conditions: for ventricular fibrillation / ventricular tachycardia: total duration during 10 min reperfusion, mean±S.D.; for effect on ventricular tachycardia induced by ischemia-reperfusion: summary in words of Tables 11 and 12, vs vehicle
Method: The utility of the present invention for treating or preventing arrhythmia was confirmed in a manner similar to that described in Circulation Research 56: 545-548, 1984.
Wistar male rats are used as experimental animals. Anesthesia of animal is induced by administration of 30 mg/kg to 60 mg/kg, preferably 40 mg/kg of pentobarbital sodium (preferably intraperitoneal injection). A catheter for the administration of drugs is placed in the jugular vein. Electrocardiogram (ECG) is recorded from lead II during cardiac ischemia and reperfusion. A thoracotomy is performed under artificial ventilation. Left coronary artery is ligated with silicon tube for 3 to 5 min, preferably 3 min. Reperfusion is performed by cutting snare. Total duration of ventricular tachycardia and ventricular fibrillation during 5 to 30 min, preferably 10 min reperfusion are evaluated. Test compounds are dissolved in solvent containing 10% DMSO, 10% ethanol, 30% polyethylene glycol and 50% distilled water and sodium hydrocarbonate is added to the solution to adjust final concentration to 0 to 1%, preferably 0.5%. Drugs are administrated intravenously in bolus at 15 to 60 min, preferably 30 min before reperfusion followed by 30 to 40 min, preferably 40 min infusion.
Wistar male rats (weight 250-350 g) were used. The compound (C-4) (the compound M-17 described in WO98/33797) and the compound (B-1) shown below were dissolved in solvent containing DMSO:ethanol:polyethylene glycol 300:1% aqueous sodium hydrogen carbonate solution=10:10:30:50 (volume ratio). Anesthesia was induced with intraperitoneal injection of 40 mg/kg of pentobarbital sodium. A catheter for the administration of drugs was placed in the jugular vein. Electrocardiogram (ECG) was recorded from lead II during cardiac ischemia and 10 min reperfusion. Drugs were administrated intravenously in bolus at 30 min before reperfusion followed by 40 min infusion. Solvent containing DMSO:ethanol:polyethylene glycol 300:1% aqueous sodium hydrogen carbonate solution=10:10:30:50 (volume ratio) was administrated as vehicle in a administration experiment. A thoracotomy was performed under artificial ventilation. Left coronary artery was ligated with silicon tube for 3 min. Reperfusion was performed by cutting snare. Total duration of ventricular tachycardia (VT) and ventricular fibrillation (VF) during 10 min reperfusion were evaluated.
Data are expressed as mean±S.D. Statistical analysis was performed with Welch's t-test. A value of P<0.05 was considered significant. Compound (C-4) [drawing 73]

cPLA2 = target: T1, cPLA2 (Homo sapiens, UniProt P47712); test: cPLA2 inhibitory activity; assay type: biochemical; conditions: 1-palmitoyl-2-[14C]-arachidonoyl-sn-glycero-3-phosphocholine liposomes, 15 min at 37° C.
T1 sequence (P47712 1-749): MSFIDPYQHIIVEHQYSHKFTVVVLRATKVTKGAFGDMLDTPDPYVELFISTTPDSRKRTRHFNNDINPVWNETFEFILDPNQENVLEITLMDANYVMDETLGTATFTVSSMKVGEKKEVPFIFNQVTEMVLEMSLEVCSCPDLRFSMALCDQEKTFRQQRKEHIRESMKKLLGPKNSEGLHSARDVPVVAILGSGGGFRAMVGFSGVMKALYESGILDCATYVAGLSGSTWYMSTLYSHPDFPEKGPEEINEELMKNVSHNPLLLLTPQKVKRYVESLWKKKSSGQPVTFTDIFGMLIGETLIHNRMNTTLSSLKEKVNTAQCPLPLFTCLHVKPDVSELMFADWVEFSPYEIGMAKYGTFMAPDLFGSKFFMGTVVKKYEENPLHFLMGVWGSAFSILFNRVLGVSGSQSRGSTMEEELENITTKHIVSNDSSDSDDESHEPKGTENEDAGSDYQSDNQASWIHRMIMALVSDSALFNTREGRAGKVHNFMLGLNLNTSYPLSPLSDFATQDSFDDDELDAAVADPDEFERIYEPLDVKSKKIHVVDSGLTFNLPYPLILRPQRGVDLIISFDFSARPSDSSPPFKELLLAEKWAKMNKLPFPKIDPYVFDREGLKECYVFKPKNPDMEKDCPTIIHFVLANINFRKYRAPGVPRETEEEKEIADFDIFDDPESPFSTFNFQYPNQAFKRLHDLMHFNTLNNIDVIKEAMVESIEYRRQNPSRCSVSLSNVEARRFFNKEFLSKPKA
Method: The compounds of the present invention were tested for the cPLA2 inhibitory activity according to the method disclosed in […]. Roberts, […], and J. E. Putnam, J. Biol. Chem., 1991, 266, 5268-5272 as outlined below. […] The reaction mixture includes 50 mM HEPES buffer (pH 7.5), 1 mM calcium chloride, 150 mM sodium chloride, 0.1 mg/ml bovine serum albumin, and 1.7 mM dithiothreitol. To the reaction mixture was added the compound of the present invention and the substrate solution. The reaction was allowed to start by adding an enzyme and continued for 15 min at 37° C. The fatty acids released by the reaction were extracted by the method described in V. P. Dole, and H. Meinertz, J. Biol. Chem., 1960, 235, 2595-2599 and its radiation activity was measured on a liquid scintillation counter. Control was obtained by conducting the experiment in the same manner except that a compound of the present invention was not added.

[1] = Bolus (i.v.) + Infusion (i.v.) 0.001 mg/kg + 0.001 mg/kg/hr
[2] = Bolus (i.v.) + Infusion (i.v.) 0.01 mg/kg + 0.01 mg/kg/hr
[3] = Bolus (i.v.) + Infusion (i.v.) 0.1 mg/kg + 0.1 mg/kg/hr

SMILES	ventricular fibrillation (Wistar male rats; [1]) [s]	ventricular tachycardia (Wistar male rats; [1]) [s]	ventricular fibrillation (Wistar male rats; [2]) [s]	ventricular tachycardia (Wistar male rats; [2]) [s]	ventricular fibrillation (Wistar male rats; [3]) [s]	ventricular tachycardia (Wistar male rats; [3]) [s]	effect on ventricular tachycardia induced by ischemia-reperfusion (Wistar male rats)	IC50 (cPLA2) [nM]	melting point [°C]
CC(C)CN(C(c1ccccc1)c1ccccc1)[C@@H]1C[C@@H](CNC(=O)c2ccc(/C=C3\SC(=O)NC3=O)cc2)N(C(=O)c2ccccc2C(=O)c2ccc(F)cc2F)C1 [Compound C-4]	15.1 ± 41.2	28.7 ± 50.3	1.6 ± 2.9	7.6 ± 9.4	0.2 ± 0.4	5.1 ± 9.3	significantly reduced	–	–
O=C1NC(=O)/C(=C/c2ccc(C(=O)NC[C@@H]3C[C@@H](SC(c4ccccc4)(c4ccccc4)c4ccccc4)CN3C(=O)c3ccccc3C(=O)c3ccc(F)cc3F)cc2)S1 [Compound B-1]	44.5 ± 133.3	54.8 ± 100.9	56.5 ± 169.5	31.1 ± 62.3	0.0 ± 0.0	0.4 ± 0.9	significantly reduced	3.7	158 to 160
